{"source": "patent US20030040531A1", "about": "“Remedies for reperfusion injury containing integrin alphanubeta 3 antagonist” (priority 2000, published 2003)", "key": {"integrin αvβ3": {"target": "integrin αvβ3 (Homo sapiens, UniProt P05106+P06756)", "sequence (P06756 31-1048)": "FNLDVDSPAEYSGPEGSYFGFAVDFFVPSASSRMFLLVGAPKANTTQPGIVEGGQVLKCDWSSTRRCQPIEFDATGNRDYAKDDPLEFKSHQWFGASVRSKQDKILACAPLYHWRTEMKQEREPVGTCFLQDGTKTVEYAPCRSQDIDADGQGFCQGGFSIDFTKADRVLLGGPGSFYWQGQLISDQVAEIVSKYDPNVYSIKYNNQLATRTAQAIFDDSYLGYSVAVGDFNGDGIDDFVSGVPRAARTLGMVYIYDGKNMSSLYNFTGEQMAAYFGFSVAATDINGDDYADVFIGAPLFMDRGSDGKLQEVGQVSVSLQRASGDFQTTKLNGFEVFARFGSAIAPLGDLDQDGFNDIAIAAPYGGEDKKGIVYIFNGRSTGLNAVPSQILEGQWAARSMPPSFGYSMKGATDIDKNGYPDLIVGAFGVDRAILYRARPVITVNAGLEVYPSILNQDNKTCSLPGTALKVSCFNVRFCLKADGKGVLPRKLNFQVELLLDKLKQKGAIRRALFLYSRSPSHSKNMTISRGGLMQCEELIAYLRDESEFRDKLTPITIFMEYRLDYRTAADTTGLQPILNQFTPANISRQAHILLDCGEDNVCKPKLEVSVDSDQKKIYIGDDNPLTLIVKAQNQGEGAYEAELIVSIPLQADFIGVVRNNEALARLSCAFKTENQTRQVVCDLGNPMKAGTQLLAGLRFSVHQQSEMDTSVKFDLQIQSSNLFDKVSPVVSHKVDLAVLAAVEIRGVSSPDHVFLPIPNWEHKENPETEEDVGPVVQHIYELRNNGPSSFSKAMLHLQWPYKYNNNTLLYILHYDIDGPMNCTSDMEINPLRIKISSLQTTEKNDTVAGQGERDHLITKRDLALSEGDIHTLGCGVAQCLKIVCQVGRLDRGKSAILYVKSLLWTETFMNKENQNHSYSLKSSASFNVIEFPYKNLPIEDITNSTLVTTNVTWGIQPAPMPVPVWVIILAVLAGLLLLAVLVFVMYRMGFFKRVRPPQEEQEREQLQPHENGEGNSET", "sequence (P05106 27-788)": "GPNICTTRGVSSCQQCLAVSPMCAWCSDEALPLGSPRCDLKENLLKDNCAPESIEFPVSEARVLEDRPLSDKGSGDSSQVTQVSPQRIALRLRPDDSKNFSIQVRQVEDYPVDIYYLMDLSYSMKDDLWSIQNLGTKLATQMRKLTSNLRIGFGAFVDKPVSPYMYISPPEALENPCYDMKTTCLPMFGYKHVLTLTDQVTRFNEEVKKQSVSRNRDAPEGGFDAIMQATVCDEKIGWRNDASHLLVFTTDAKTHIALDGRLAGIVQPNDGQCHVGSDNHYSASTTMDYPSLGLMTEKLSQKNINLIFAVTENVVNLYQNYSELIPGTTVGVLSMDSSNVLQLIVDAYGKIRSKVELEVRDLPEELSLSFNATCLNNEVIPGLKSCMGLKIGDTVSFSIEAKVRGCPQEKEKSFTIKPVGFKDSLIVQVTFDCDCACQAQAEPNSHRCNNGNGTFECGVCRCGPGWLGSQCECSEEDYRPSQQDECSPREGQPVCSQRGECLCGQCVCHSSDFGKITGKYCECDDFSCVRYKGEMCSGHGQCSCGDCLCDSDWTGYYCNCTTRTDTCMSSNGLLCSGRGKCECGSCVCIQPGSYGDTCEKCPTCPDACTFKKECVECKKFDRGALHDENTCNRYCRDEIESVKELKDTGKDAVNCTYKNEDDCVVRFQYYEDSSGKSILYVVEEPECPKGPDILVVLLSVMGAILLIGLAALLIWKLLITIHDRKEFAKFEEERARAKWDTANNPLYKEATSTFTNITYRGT", "assay": "integrin αvβ3 binding assay (Pharmacological Example 1 in WO 99/38849)", "text": "Whether or not a compound has integrin αvβ3 antagonistic activity may be determined by assaying the antagonistic action by integrin αvβ3 binding assay as described, for example, in Pharmacological Test Example 1 in WO 99/38849."}, "[1]": {"system": "hamster vascular smooth muscle cells", "assay": "adhesion of hamster vascular smooth muscle cells to rat vitronectin", "assay_type": "cell-based", "details": "Mesocricetus auratus, read-out: concentration (IC50) necessary for inhibition of adhesion to vitronectin", "method": "The adhesion of vascular smooth muscle cells to immobilized human vitronectin was measured in accordance with the method of Liaw et al. (L. Liaw et al., Circ. Res., 74, 214 (1994)). A Dulbecco's phosphate buffer (Dulbecco's PBS(−)) solution of human serum-derived vitronectin adjusted to a concentration of 4 μg/ml was first added to wells (50 μl/well) of a microplate (Maxisorp), and a reaction for immobilization was allowed to proceed at 4° C. overnight. After washing twice with 150 μl of Dulbecco's PBS (−), Dulbecco's PBS (−) containing 10 mg/ml of bovine serum albumin was added, followed by blocking at 37° C. for one hr. The microplate was then washed twice with 150 μl of Dulbecco's PBS (−) to prepare an assay plate.\nNext, 50 μl of a Dulbecco's modified Eagle's basal medium containing 20 mg/ml of bovine serum albumin with a medicament added thereto was added to the wells of the human vitronectin-coated assay microplate, followed by pre-cultivation under 5% carbon dioxide at 37° C. for 10 min. […] The absorbance of the microplate thus obtained was measured at 595 nm. […] The inhibition was calculated by the following equation. IC50 was determined from a primary regression line of the logarithm of each concentration of the test compound and the logarithm of (100−inhibition)/inhibition. […]"}, "platelet aggregation [2]": {"system": "platelet aggregation", "assay": "inhibition of platelet aggregation, human", "assay_type": "cell-based", "details": "read-out: concentration (IC50) necessary for inhibition of platelet aggregation"}, "platelet aggregation [3]": {"system": "platelet aggregation", "assay": "inhibition of platelet aggregation, dog", "assay_type": "cell-based", "details": "Canis lupus familiaris, read-out: concentration (IC50) necessary for inhibition of platelet aggregation"}, "[4]": {"system": "rat acute myocardial ischemia-reperfusion model", "assay": "rat acute myocardial ischemia-reperfusion model", "assay_type": "in vivo", "details": "for myocardial infarct size (proportion of the infarct area in the left ventricle): average value±SE, n=5", "method": "Male Wistar rats (330 to 420 g) were subjected to controlled respiration using an artificial respirator under pentobarbital anesthesia (60 mg/kg, i.p.), and the blood pressure and the heart rate were measured through a blood pressure amplifier and a heart rate unit. Further, for the ischemia of the myocardium, an increase in voltage of R-wave in the II leading in an electrocardiogram was confirmed with a monitor through a bioelectricity amplifier. The rats underwent thoracotomy, and the coronary artery, together with the myocardium, was then occluded using a suture with a needle. Ischemia for 3 min and reperfusion for 5 min were followed by ischemia for 45 min and reperfusion for 45 min. Medicaments tested and concentrations thereof were 3 mg/kg+3 mg/kg/hr (bolus +infusion) (L; low dose group) and 6 mg/kg+3 mg/kg/hr (bolus +infusion) (H; high dose group) for the compound represented by formula (V); 3 mg/kg+3 mg/kg/hr (bolus +infusion) for the compound represented by formula (VI); 3 mg/kg+3 mg/kg/hr (bolus +infusion) (L; low dose group) and 6 mg/kg+3 mg/kg/hr (bolus +infusion) (H; high dose group) for the compound represented by formula (IV); 5 mg/kg+5 mg/kg/hr(bolus +infusion)(L; low dose group) and 10 mg/kg+10 mg/kg/hr (bolus +infusion) (H; high dose group) for the compound represented by formula (VII); and 1 mg/kg+1 mg/kg/hr (bolus+infusion) (L; low dose group) and 6 mg/kg+6 mg/kg/hr (bolus+infusion) (H; high dose group) for the compound represented by formula (VIII). For a control group (group C), a 10% (v/v) dimethyl sulfoxide/5% glucose solution was administered, and each medicament was dissolved in the same solvent. The dose volume was 3 ml/kg+3 ml/kg/h (bolus+infusion). The medicament was continuously administered through an infusion pump for the period starting with one min before the ischemia and ending with the completion of the experiment. After reperfusion for 45 min, the rats were slaughtered by excessive administration of pentobarbital, and the heart was removed. After perfusion with a Ringer solution, perfusion staining was carried out with 1.5% triphenyltetrazolium chloride, and the proportion of the infarct area in the left ventricle was quantitatively determined. For animals used in the experiment, each group consisted of 5 rats."}, "[5]": {"system": "rat peritoneal cavity macrophage", "description": "A Dulbecco's phosphate buffer (PBS (−)) solution of rat serum-derived vitronectin adjusted to a concentration of 5 μg/ml was first added to wells (50 μl/well) of a microplate (Maxisorp), and a reaction for immobilization was allowed to proceed at 4° C. overnight. After washing twice with 150 μl of PBS (−), PBS (−) containing 10 mg/ml of bovine serum albumin was added, followed by blocking at 37° C. for one hr. The microplate was then washed twice with 150 μl of PBS (−) to prepare an assay plate.\nRat peritoneal cavity macrophage was collected after the induction of thioglycolate into the peritoneal cavity. Specifically, a 3% thioglycolate medium was intraperitoneally administered into Wistar male rats (300 to 400 g) at a dose of 100 ml/kg, and, four days after the administration, intraperitoneal fluid and cold PBS (−) (100 ml/kg) injected into the peritoneal cavity were withdrawn to collect macrophage. The macrophage was isolated by removing nonadherent cells. Specifically, the cells collected from the peritoneal cavity were washed twice with PBS (−) and were then cultivated in a Dulbecco's modified Eagle's basal medium containing 0.1% bovine serum albumin under 5% carbon dioxide for 30 min to perform adhesion of macrophage. Next, nonadherent cells were removed, followed by washing with PBS (−). Thereafter, macrophage was collected with a cell scraper. The collected rat macrophage was washed twice with PBS (−) and was then suspended in a Dulbecco's modified Eagle's basal medium to a concentration of 8×10^5/ml. Next, 50 μl of a Dulbecco's modified Eagle's basal medium containing 0.2% bovine serum albumin with a medicament added thereto was added to the wells of the vitronectin-coated assay microplate, followed by pre-cultivation under 5% carbon dioxide at 37° C. for 10 min. Thereafter, 50 μl of the Dulbecco's modified Eagle's basal medium with macrophage suspended therein was added thereto, and the plate was thoroughly stirred. A reaction was allowed to proceed under 5% carbon dioxide at 37° C. for 10 min. […] The absorbance of the microplate thus obtained was measured at 595 nm."}, "[6]": {"details": "3 mg/kg+3 mg/kg/hr (bolus+infusion)"}, "[7]": {"details": "6 mg/kg+3 mg/kg/hr (bolus+infusion), group H"}}, "note": "Like-named read-outs stand apart in the source and are kept apart here.", "data": [{"smiles": "O=C(NCC(NS(=O)(=O)c1ccccc1)C(=O)O)c1ccc(N2CCC(NC3=NCCCN3)CC2)c(F)c1", "note": "(stereo in doubt) [formula (IV), (2S)-Benzenesulfonylamino-3-[3-fluoro-4-{4-(1,4,5,6-tetrahydropyrimidin-2-ylamino)-piperidin-1-yl}benzoylamino]propionic Acid]", "values": [{"measurement": "IC50", "setting": "integrin αvβ3", "value": 0.0002, "unit": "µM"}, {"measurement": "IC50", "setting": "[1]", "value": 0.73, "unit": "µM"}, {"measurement": "IC50", "setting": "platelet aggregation [2]", "value": 0.055, "unit": "µM"}, {"measurement": "IC50", "setting": "platelet aggregation [3]", "value": 0.045, "unit": "µM"}, {"measurement": "reduction of myocardial infarct size as compared with group C", "setting": "[4]; [6]", "value": 17.8, "unit": "%"}, {"measurement": "myocardial infarct size (proportion of the infarct area in the left ventricle)", "setting": "[4]; [6]", "value": "32.3±4.9", "unit": "%"}, {"measurement": "reduction of myocardial infarct size as compared with group C", "setting": "[4]; [7]", "value": 35.1, "unit": "%"}, {"measurement": "myocardial infarct size (proportion of the infarct area in the left ventricle)", "setting": "[4]; [7]", "value": "25.5±1.5", "unit": "%"}, {"measurement": "influence on the blood pressure and the heart rate", "setting": "[4]; doses at which the infarct inhibition action could be obtained", "value": "no influence"}, {"measurement": "fluorescence intensity (adhered rat macrophage)", "setting": "[5]; 0.1 µM", "value": "0.086±0.069", "unit": "arbitrary unit"}, {"measurement": "fluorescence intensity (adhered rat macrophage)", "setting": "[5]; 1 µM", "value": "0.031 +0.037 arbitrary unit"}, {"measurement": "fluorescence intensity (adhered rat macrophage)", "setting": "[5]; 10 µM", "value": "0.012 +0.038 arbitrary unit"}]}]}
